Experimental data: paper PMC7708037, “Targeting OGG1 arrests cancer cell proliferation by inducing replication stress” (Nucleic Acids Research, 2020)

Assays:
[1] = tested on: genomic 8-oxodG in A3 cells; test: 8-oxodG detection in genomic DNA by LC-MS/MS; type: cell-based, human; details: 10 μM, up to five days
Procedure: 8-oxodG detection in genomic DNA through LC–MS/MS ([39]) and single-cell electrophoresis ([40]) were performed as described.
Figure 5. Effect of TH5487 on DNA lesions, DNA damage markers and DNA replication. (A) 8-oxodG accumulation in A3 cells. A3 cells were treated with 20 mM KBrO3 for 1 h or with 10 μM TH5487 for the indicated times, and the amount of genomic 8-oxodG was quantified with LC-MS/MS. Data are average ±SD of five replicates from two independent experiments. (B) Comet assay. A3 cells were treated with 10 μM TH5487 for 72 h and strand-breaks and OGG1 substrate lesions were analyzed with the OGG1-modified Comet assay. Representative images of cells are shown. (C) Violin blot of Comet tail moment. Cells were treated as in B, and the tail moment of the cells were analyzed using blinded automatic analysis (n = 200 per condition from two independent experiments). The full line indicates median, and the dotted lines quartiles. (D) Violin blot of phosphorylated γH2AX intensity. A3 cells were treated with 0.1% DMSO or 10 μM TH5487 for the indicated times and stained for phosphorylated γH2AX. […] At least 33 000 nuclei per group were quantified from three independent experiments. […] At least 300 forks were scored per condition. Statistical significance was determined using unpaired, two-sided t-tests (**P < 0.01, ***P < 0.001 and ****P < 0.0001; ns, non-significant).

[2] = parameters: method as in PMID 30442810; details: cited from earlier work
OGG1 enzyme = OGG1 enzyme (Homo sapiens, UniProt O15527); test: Cellular thermal shift assay in excised xenograft tumors; type: in vivo; parameters: endogenous in cells; host or cells: A3 T-cell acute lymphoblastic leukemia cells (luciferase-transfected) grown as subcutaneous xenograft tumours in NOD-SCID mice; details: A3 xenograft tumors excised following termination
Procedure: Animal experiments were conducted as per the European directive, ethical guideline and regulations of the regional animal ethical committee Stockholm 2010/63 (N8914). Upon arrival to animal facility, animals were acclimatized in the animal house for a week with ad lib food and water, with a 12 h light cycle and the temperature and humidity set according to laboratory animal guidelines and regulations. For the xenograft experiment involving inducible shRNA, 1 × 10^7 non-targeting luciferase transfected A3 cells in 50% matrigel in PBS were injected into flank region of BALB/c nude mice. Later, mice from non-targeting and shRNA groups were randomly divided into two groups containing eight mice per group. […] Tumor volume was measured using calipers (length × 0.52 × width × width) and bioluminescence images were taken using an IVIS spectrum in vivo imaging system (Perkin-Elmer) after intraperitoneal injection of D-luciferin (150 mg/kg in PBS). […] Following lysis by three freeze-thaw cycles, samples were centrifuged at 20 000 × g for 30 min, and OGG1 in the supernatant was detected by immunoblotting. […]
Figure 7. […] Tumors were excised following termination, and TH5487 target engagement was analyzed by cellular thermal shift assay, using an antibody specific for the human OGG1 protein. […]

Chain of OGG1 enzyme (O15527 whole entry): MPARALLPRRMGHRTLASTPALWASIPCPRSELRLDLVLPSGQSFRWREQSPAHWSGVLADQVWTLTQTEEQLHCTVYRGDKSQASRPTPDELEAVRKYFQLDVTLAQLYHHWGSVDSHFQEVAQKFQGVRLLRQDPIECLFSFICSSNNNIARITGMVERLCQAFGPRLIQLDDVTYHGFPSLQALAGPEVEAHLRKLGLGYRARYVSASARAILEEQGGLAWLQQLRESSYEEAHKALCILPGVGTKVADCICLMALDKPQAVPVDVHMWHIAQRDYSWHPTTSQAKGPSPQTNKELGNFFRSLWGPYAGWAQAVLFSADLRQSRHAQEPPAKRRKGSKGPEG

SMILES: O=C(Nc1ccc(I)cc1)N1CCC(n2c(=O)[nH]c3c(Br)cccc32)CC1 [TH5487]
- Genomic 8-oxodG levels [1]: did not rise above assay background levels
- Stability in mouse serum [2]: stable
- OGG1 target engagement in xenograft tumor (CETSA) (OGG1 enzyme): unable to demonstrate OGG1 target engagement
